These results are taken from publication PMC7708037, “Targeting OGG1 arrests cancer cell proliferation by inducing replication stress” (Nucleic Acids Research, 2020).

One test deals with OGG1 enzyme (Homo sapiens, UniProt O15527). Kind of test: Cellular thermal shift assay in excised xenograft tumors. The test is classed as in vivo. Further details: endogenous in cells; host or cells: A3 T-cell acute lymphoblastic leukemia cells (luciferase-transfected) grown as subcutaneous xenograft tumours in NOD-SCID mice. To be noted: A3 xenograft tumors excised following termination. The method, then: Animal experiments were conducted as per the European directive, ethical guideline and regulations of the regional animal ethical committee Stockholm 2010/63 (N8914). Upon arrival to animal facility, animals were acclimatized in the animal house for a week with ad lib food and water, with a 12 h light cycle and the temperature and humidity set according to laboratory animal guidelines and regulations. For the xenograft experiment involving inducible shRNA, 1 × 10^7 non-targeting luciferase transfected A3 cells in 50% matrigel in PBS were injected into flank region of BALB/c nude mice. Later, mice from non-targeting and shRNA groups were randomly divided into two groups containing eight mice per group. […] Tumor volume was measured using calipers (length × 0.52 × width × width) and bioluminescence images were taken using an IVIS spectrum in vivo imaging system (Perkin-Elmer) after intraperitoneal injection of D-luciferin (150 mg/kg in PBS). […] Following lysis by three freeze-thaw cycles, samples were centrifuged at 20 000 × g for 30 min, and OGG1 in the supernatant was detected by immunoblotting. […]
Figure 7. […] Tumors were excised following termination, and TH5487 target engagement was analyzed by cellular thermal shift assay, using an antibody specific for the human OGG1 protein. […]

The test system of test [1] is A3 shNT cells transcriptome. Kind of test: RNA-sequencing and Gene Set Enrichment Analysis. The test is classed as cell-based, human. The following applies: 10 μM, 24 h vs DMSO. As for the experimental part:
To extract bulk RNA from cells, the pellets were resuspended in 500 μl of TRI Reagent. After 5 min, 100 μl of chloroform was added and the tubes were shaken by hand for one minute. After 15 min incubation, the samples were centrifuged at 12 000 × g for 15 min at 4°C. 300 μl of the aqueous phase were then mixed thoroughly with 300 μl of Isopropanol, 30 μl of 3M Sodium Acetate and 1 μl of Pellet Paint (Merck 69049) and incubated over night at −20°C. The following day, the samples were centrifuged at 20 000 × g g for 30 min and the pellets washed twice with 600 μl of 70% ethanol. After drying, the pellets were resuspended in 15 μl of Elution Buffer and the concentration of RNA was measured using the Qubit RNA High Sensitivity Assay (Thermo Fischer Q32852) according to the manufacturer's instructions.
After diluting the samples, 2 ng of RNA were used as input for the Smart-seq2 RNA-sequencing protocol ([41]) and 50 bp single ends were sequenced on an Illumina HiSeq 3000 sequencer. Reads were mapped to the ENSEMBL human transcriptome GRCh37 using Tophat 2.1.1 to generate the read count matrix.
Differential expression analysis was performed with DESeq2 (v. 1.26.0) ([42]). […] For Gene Set Enrichment Analysis only genes with a mean expression >5 normalized counts as determined by DESeq2 were taken into account. […]
Figure 6. […] Only genes with a mean normalized count >5 were analyzed. […]

Sequence of OGG1 enzyme (O15527 whole entry): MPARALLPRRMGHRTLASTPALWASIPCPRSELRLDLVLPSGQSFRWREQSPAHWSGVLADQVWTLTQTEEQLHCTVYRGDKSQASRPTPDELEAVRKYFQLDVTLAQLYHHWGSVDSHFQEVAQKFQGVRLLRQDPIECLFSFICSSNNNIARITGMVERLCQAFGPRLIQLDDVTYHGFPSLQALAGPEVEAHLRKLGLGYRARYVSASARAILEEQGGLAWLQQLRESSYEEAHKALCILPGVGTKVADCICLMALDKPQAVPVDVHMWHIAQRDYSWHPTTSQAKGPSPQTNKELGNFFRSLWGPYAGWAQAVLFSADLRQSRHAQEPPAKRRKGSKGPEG

On to `O=C(Nc1ccc(I)cc1)N1CCC(n2c(=O)[nH]c3c(Br)cccc32)CC1` [TH5487], for which, on OGG1 enzyme, the “OGG1 target engagement in xenograft tumor (CETSA)” value is “unable to demonstrate OGG1 target engagement”. In addition, the “'DNA replication' gene signature (GSEA)” value in test [1] is on record as “one of the most downregulated gene signatures”.
